{
  "source": "ChEMBL document CHEMBL3045800",
  "about": "(2003)",
  "key": {"Oryza sativa": {"tested_on": "Oryza sativa", "type": "functional,  cv. Nipponbare"}, "Pyricularia oryzae [1]": {"tested_on": "Pyricularia oryzae", "assay": "Inhibition of mycelial growth in Magnaporthe oryzae at 800 ppm after 7 days by hyphal growth inhibition assay", "type": "functional", "conditions": "168 h, read-out: INH"}, "Pyricularia oryzae [2]": {"tested_on": "Pyricularia oryzae", "assay": "Inhibition of mycelial growth in Magnaporthe oryzae at 400 ppm after 7 days by hyphal growth inhibition assay", "type": "functional", "conditions": "168 h, read-out: INH"}, "Pyricularia oryzae [3]": {"tested_on": "Pyricularia oryzae", "assay": "Inhibition of spore germination in Magnaporthe oryzae at 100 ppm after 48 hr", "type": "functional", "conditions": "read-out: INH"}, "Pyricularia oryzae [4]": {"tested_on": "Pyricularia oryzae", "assay": "Inhibition of mycelial growth in Magnaporthe oryzae at 200 ppm after 7 days by hyphal growth inhibition assay", "type": "functional", "conditions": "168 h, read-out: INH"}, "Pyricularia oryzae [5]": {"tested_on": "Pyricularia oryzae", "assay": "Inhibition of appressorium formation in Magnaporthe oryzae at 100 ppm after 48 hr by microscopy based cellulose membrane method", "type": "functional", "conditions": "read-out: INH"}, "Pyricularia oryzae [6]": {"tested_on": "Pyricularia oryzae", "assay": "Inhibition of mycelial growth in Magnaporthe oryzae at 1000 ppm after 7 days by hyphal growth inhibition assay", "type": "functional", "conditions": "168 h, read-out: INH"}, "Pyricularia oryzae [7]": {"tested_on": "Pyricularia oryzae", "assay": "Inhibition of spore germination in Magnaporthe oryzae at 20 ppm after 48 hr", "type": "functional", "conditions": "read-out: INH"}, "Pyricularia oryzae [8]": {"tested_on": "Pyricularia oryzae", "assay": "Inhibition of spore germination in Magnaporthe oryzae at 80 ppm after 48 hr", "type": "functional", "conditions": "read-out: INH"}, "Pyricularia oryzae [9]": {"tested_on": "Pyricularia oryzae", "assay": "Inhibition of spore germination in Magnaporthe oryzae at 40 ppm after 48 hr", "type": "functional", "conditions": "read-out: INH"}, "Pyricularia oryzae [10]": {"tested_on": "Pyricularia oryzae", "assay": "Inhibition of appressorium formation in Magnaporthe oryzae at 80 ppm after 48 hr by microscopy based cellulose membrane method", "type": "functional", "conditions": "read-out: INH"}, "Pyricularia oryzae [11]": {"tested_on": "Pyricularia oryzae", "assay": "Inhibition of appressorium formation in Magnaporthe oryzae at 40 ppm after 48 hr by microscopy based cellulose membrane method", "type": "functional", "conditions": "read-out: INH"}, "Pyricularia oryzae [12]": {"tested_on": "Pyricularia oryzae", "assay": "Inhibition of appressorium formation in Magnaporthe oryzae at 20 ppm after 48 hr by microscopy based cellulose membrane method", "type": "functional", "conditions": "read-out: INH"}},
  "data": [
    {"smiles": "Cc1cc(C(=O)O)n(C)n1", "values": [
      {"measurement": "ED80", "setting": "Oryza sativa", "value": 0.5, "unit": "mg"}
    ]},
    {"smiles": "COC(=O)Nc1cc(Cl)nn1C", "values": [
      {"measurement": "ED80", "setting": "Oryza sativa", "value": ">5", "unit": "mg"}
    ]},
    {"smiles": "Cn1nc(Cl)cc1C(=O)O", "note": "[3-CHLORO-1-METHYL-1H-PYRAZOLE-5-CARBOXYLIC ACID]", "values": [
      {"measurement": "inhibition at 800 ppm", "setting": "Pyricularia oryzae [1]", "value": 0, "unit": "%"},
      {"measurement": "inhibition at 400 ppm", "setting": "Pyricularia oryzae [2]", "value": 0, "unit": "%"},
      {"measurement": "inhibition at 100 ppm", "setting": "Pyricularia oryzae [3]", "value": 35.4, "unit": "%"},
      {"measurement": "ED80", "setting": "Oryza sativa", "value": 0.05, "unit": "mg"},
      {"measurement": "inhibition at 200 ppm", "setting": "Pyricularia oryzae [4]", "value": 0, "unit": "%"},
      {"measurement": "inhibition at 100 ppm", "setting": "Pyricularia oryzae [5]", "value": 41.6, "unit": "%"},
      {"measurement": "inhibition at 1000 ppm", "setting": "Pyricularia oryzae [6]", "value": 47.5, "unit": "%"},
      {"measurement": "inhibition at 20 ppm", "setting": "Pyricularia oryzae [7]", "value": 0, "unit": "%"},
      {"measurement": "inhibition at 80 ppm", "setting": "Pyricularia oryzae [8]", "value": 0, "unit": "%"},
      {"measurement": "inhibition at 40 ppm", "setting": "Pyricularia oryzae [9]", "value": 0, "unit": "%"},
      {"measurement": "inhibition at 80 ppm", "setting": "Pyricularia oryzae [10]", "value": 10, "unit": "%"},
      {"measurement": "inhibition at 40 ppm", "setting": "Pyricularia oryzae [11]", "value": 0, "unit": "%"},
      {"measurement": "inhibition at 20 ppm", "setting": "Pyricularia oryzae [12]", "value": 0, "unit": "%"}
    ]},
    {"smiles": "CC(=O)c1cc(Cl)nn1C", "values": [
      {"measurement": "ED80", "setting": "Oryza sativa", "value": 5, "unit": "mg"}
    ]},
    {"smiles": "Cn1nc(Cl)cc1C=O", "values": [
      {"measurement": "ED80", "setting": "Oryza sativa", "value": ">5", "unit": "mg"}
    ]},
    {"smiles": "Cn1cc(C(=O)O)c(Cl)n1", "values": [
      {"measurement": "ED80", "setting": "Oryza sativa", "value": 0.5, "unit": "mg"}
    ]},
    {"smiles": "Cn1nc(Br)cc1C(=O)O", "values": [
      {"measurement": "ED80", "setting": "Oryza sativa", "value": 0.05, "unit": "mg"}
    ]},
    {"smiles": "Cn1nc(Cl)cc1CC(=O)O", "values": [
      {"measurement": "ED80", "setting": "Oryza sativa", "value": 5, "unit": "mg"}
    ]},
    {"smiles": "COC(=O)c1cc(Cl)nn1C", "values": [
      {"measurement": "ED80", "setting": "Oryza sativa", "value": 0.05, "unit": "mg"}
    ]},
    {"smiles": "Cn1ncc(C(=O)O)c1Cl", "values": [
      {"measurement": "ED80", "setting": "Oryza sativa", "value": ">5", "unit": "mg"}
    ]},
    {"smiles": "Cn1nccc1C(=O)O", "values": [
      {"measurement": "ED80", "setting": "Oryza sativa", "value": ">5", "unit": "mg"}
    ]}
  ]
}
